The source of these data is US11827677B2, “Antimicrobial peptide ID13, preparation method and use thereof” (Feed Research Institute, Chinese Academy of Agricultural …, priority 2019, dated 2023).

Where “and” joins values, the source holds several entries; their conditions need not be identical. Equal values may be shown once. Read-outs that look alike come from different tables or passages of the source. Bridge positions count the residues as written; N and C are the ends. Peptide text beside a SMILES is read from it.

Series [1] has as its system Staphylococcus aureus ATCC 43300. Kind of series: MIC by trace broth dilution method. It is filed as cell-based. Particulars: 16-18 h. The method, then:
(§1) The minimum inhibition concentration (MIC) of ID13 against pathogens was measured using a trace broth dilution method. The freeze-dried powder of antimicrobial peptide ID13 obtained in Example 6 was used to prepare a solution of antimicrobial peptide ID13 with a concentration of 1280 μg/mL and a solution of vancomycin, respectively with sterile normal saline, and diluted with a two-fold ratio to a final concentration of 1.25 μg/mL. The antimicrobial peptide ID13 solutions and vancomycin solutions of different concentrations were added to a sterile 96-well cell culture plate, with 10 μL per well, three parallels for each sample, and the same amount (10 μL) of sterile saline was used as a negative control, to prepare MIC plates. Strains were cultured in MH liquid medium with shaking at 37° C. until its OD600 nm=0.4 and diluted to 1×10^5 CFU/ml. 90 μL of cell suspension was added into each well of the prepared sample well of the MIC plate and incubated at 37° C. for 16-18 h.

Series [2] relates to Staphylococcus aureus CVCC 546. Kind of series: MIC by trace broth dilution method. Format: cell-based. The note with it: 16-18 h. The method, then: as §1
The test system of series [3] is Streptococcus suis CVCC 3928. Kind of series: MIC by trace broth dilution method. It is filed as cell-based. The note with it: 16-18 h. The method, then: as §1
The subject of another series is MRSA ATCC 43300. Particulars: cited from earlier work.
The test system of series [4] is Staphylococcus Epidermidis ATCC 12228. Kind of series: MIC by trace broth dilution method. Format: cell-based. The method, then:
as §1
(In general: Broth dilution looks for growth in wells or tubes with falling amounts of substance.)

Series [5] concerns Streptococcus pneumoniae CVCC 2350. Kind of series: MIC by trace broth dilution method. Format: cell-based. The method, then:
as §1

Another series relates to Gram-positive bacteria. The series can be described thus: Antimicrobial activity (MIC) summary over tested strains. Format: cell-based. The note with it: range over the tested Gram-positive strains. The method, then:
as §1

A further series has as its system mice red blood cells. Kind of series: Hemolysis assay. The note with it: concentration of 1-256 μg/mL; 37° C., 1 h. Format: cell-based, ICR mice. The method, then: The freeze-dried powder of antimicrobial peptide ID13 obtained in Example 6 was used for the test. The antimicrobial peptide ID13 was dissolved in sterile physiological saline to prepare a stock solution of a concentration of 512 μg/mL, and diluted with a 2-fold ratio to a final concentration of 2 μg/mL. The blood from the eyeballs of 6-week-old SPF female ICR mice was taken and collected with a heparin sodium anticoagulation tube. The collected blood was centrifuged at 4° C., 1500 rpm for 10 min. The red blood cells were washed three times with 10 mM PBS (pH 7.3) until the supernatant was colorless and transparent, and an 8% red blood cell suspension was prepared. 100 μL of the red blood cell suspension and antimicrobial peptide ID13 solution were added to 96-well plate, incubated at 37° C. for 1 h, and centrifuged at 1500 rpm for 5 min. The resulted supernatant was transferred to ELISA plate to detect the UV absorbance at 540 nm. Values of 0% and 100% hemolysis control tests were set up with physiological saline and 0.1% TRITON X-100 detergent, respectively. The formula for calculating the degree of hemolysis was as follows (Jung, Park, etc., 2007): Hemolysis (%)=[(Abs540 nm antimicrobial peptide ID13—Abs540 nm physiological saline)/(Abs540 nm 0.1% TRITON X-100 detergent—Abs540 nm physiological saline)]×100%.

The next series has as its system RAW264.7 cells. The series can be described thus: Cytotoxicity assay (MTT). Format: cell-based. Particulars: 256 μg/mL, 24 hours incubation. The method, then: The RAW264.7 cells were cultured in DMEM complete medium with 37° C., 5% CO2 and saturated humidity conditions. The cells were pipetted and re-suspended in DMEM complete medium. Then, the cells were seeded in a 96-well plate at a density of 2.5×10^5 cells/mL, 100 μL per well, and 3 replicates were set. After 24 h, the medium was removed, and 100 μL of 1, 2, 4, 8, 16, 32, 64, 128, and 256 μg/mL ID13 were added to each well according to a concentration gradient. Control wells were added with the same amount of PBS solution. After 24 hours incubation, the medium was removed; the wells were washed twice with PBS, and 100 μL of MTT at a concentration of 5 mg/mL was added to each well (which were operated in dark). The 96-well plate was moved to an incubator and continued to be incubated for 4 h. After discarding the MTT solution, 150 μL DMSO was added into each well, and then the plate was cultured with shaking for 10 minutes. When crystals at the well bottom were completely dissolved, the absorbance values were measured at a wavelength of 570 nm. The cell survival rate was calculated according to the following formula: survival rate (%)=OD value of the treatment group/OD value of the control group×100% (Jiao et al., 2015).

In general, MIC refers to the smallest concentration in the dilution series that meets the test's criterion for growth inhibition. For `CC[C@H](C)[C@@H]1NC(=O)[C@@H]2CSSC[C@@H](C(=O)N[C@@H](CCCNC(=N)N)C(=O)N[C@@H](CCCCN)C(=O)O)NC(=O)[C@H](CC(N)=O)NC(=O)[C@@H]3CSSC[C@H](NC(=O)[C@H](C)NC(=O)[C@H](C)NC(=O)[C@H](Cc4c[nH]cn4)NC(=O)CNC(=O)[C@H](C(C)C)NC(=O)[C@H](CCCCN)NC(=O)[C@H](Cc4ccccc4)NC(=O)[C@@H]4CCCN4C(=O)[C@H](CO)NC(=O)[C@H](CC(C)C)NC(=O)[C@H](CC(C)C)NC(=O)[C@H](CC(=O)O)NC(=O)[C@@H](NC(=O)[C@@H](NC(=O)[C@H](C)N)[C@@H](C)O)CSSC[C@H](NC(=O)[C@H](Cc4c[nH]c5ccccc45)NC(=O)CNC(=O)CNC(=O)[C@H](CCCNC(=N)N)NC(=O)[C@H](CCCCN)NC(=O)CNC(=O)[C@H](CCCNC(=N)N)NC(=O)[C@H](C)NC1=O)C(=O)N[C@@H](CC(=O)O)C(=O)N[C@@H](CCCCN)C(=O)N[C@@H](CCCNC(=N)N)C(=O)N[C@@H](C)C(=O)N[C@@H](C(C)C)C(=O)N3)C(=O)N[C@@H](C)C(=O)N[C@@H](C)C(=O)N[C@@H](Cc1c[nH]cn1)C(=O)N2` [DLP4] (H-ATCDLLSPFKVGHAACAAHCIARGKRGGWCDKRAVCNCRK-OH; disulfide 3-30, 16-36, 20-38; N-terminus and C-terminus assumed), the MIC in series [1] (37° C.), in series [2] (37° C.) and in [3] (37° C.) was 16 µg/mL throughout. Besides, the “drug tolerance such as increased MIC” value in the series with MRSA ATCC 43300 (MRSA ATCC 43300 continuously passaged for 30 days under the effective dose) is “no drug tolerance”.

`CN[C@H](CC(C)C)C(=O)N[C@H]1C(=O)N[C@@H](CC(N)=O)C(=O)N[C@H]2C(=O)N[C@H]3C(=O)N[C@H](C(=O)N[C@H](C(=O)O)c4cc(O)cc(O)c4-c4cc3ccc4O)[C@H](O)c3ccc(c(Cl)c3)Oc3cc2cc(c3O[C@@H]2O[C@H](CO)[C@@H](O)[C@H](O)[C@H]2O[C@H]2C[C@](C)(N)[C@H](O)[C@H](C)O2)Oc2ccc(cc2Cl)[C@H]1O` [Vancomycin]: the minimal inhibitory concentration (MIC) was 0.67 µM and 1 µg/mL in series [4] (Staphylococcus epidermidis, ATCC12228); 0.67 µM and 1 µg/mL in [1] (ATCC43300, 37° C., read-out: MIC); 0.67 µM and 1 µg/mL in series [2] (CVCC546, 37° C., read-out: MIC); 0.34 µM and 0.5 µg/mL in [5] (Streptococcus pneumoniae, CVCC2350); 0.17 µM and 0.25 µg/mL in series [3] (CVCC3928, 37° C., read-out: MIC).

As for `CC[C@H](C)[C@@H]1NC(=O)[C@@H]2CSSC[C@@H](C(=O)N[C@@H](CCCNC(=N)N)C(=O)N[C@@H](CCCCN)C(=O)O)NC(=O)[C@H](CC(N)=O)NC(=O)[C@@H]3CSSC[C@H](NC(=O)[C@H](C)NC(=O)[C@H](C)NC(=O)[C@H](Cc4c[nH]cn4)NC(=O)CNC(=O)[C@H](C(C)C)NC(=O)[C@H](CCCCN)NC(=O)[C@H](Cc4ccccc4)NC(=O)[C@@H]4CCCN4C(=O)[C@H](CO)NC(=O)[C@H](CC(C)C)NC(=O)[C@H](CC(C)C)NC(=O)[C@H](CC(=O)O)NC(=O)[C@@H](NC(=O)[C@@H](NC(=O)[C@H](C)N)[C@@H](C)O)CSSC[C@H](NC(=O)[C@H](Cc4c[nH]c5ccccc45)NC(=O)CNC(=O)CNC(=O)[C@H](CCCNC(=N)N)NC(=O)[C@H](CCCCN)NC(=O)CNC(=O)[C@H](CCCNC(=N)N)NC(=O)[C@H](C)NC1=O)C(=O)N[C@@H](CC(=O)O)C(=O)NCC(=O)N[C@@H](CCCNC(=N)N)C(=O)N[C@@H](C)C(=O)N[C@@H](C(C)C)C(=O)N3)C(=O)N[C@@H](C)C(=O)N[C@@H](C)C(=O)N[C@@H](Cc1c[nH]cn1)C(=O)N2` [ID13] (H-ATCDLLSPFKVGHAACAAHCIARGKRGGWCDGRAVCNCRK-OH; disulfide 3-30, 16-36, 20-38 (inferred); N-terminus and C-terminus assumed), the MIC is 1.91 μM and 8 μg/mL in [4] (Staphylococcus Epidermidis ATCC 12228, 37° C., 16-18 h); 4 µg/mL in [1] (37° C.); 0.95 µM in series [1] (37° C., read-out: MIC); 4 µg/mL in series [2] (37° C.); 0.95 µM in series [2] (37° C., read-out: MIC); 0.95 μM and 4 μg/mL in [5] (Streptococcus pneumoniae CVCC 2350, 37° C., 16-18 h). The minimal inhibitory concentration (MIC) in series [3] (37° C.) amounted to 4 µg/mL; in series [3] (37° C., read-out: MIC), 0.95 µM. Moreover, the “antimicrobial activity against Gram-positive bacteria (MIC range)” value in the series on Gram-positive bacteria was 0.95 to 1.91 µM. Moreover, in the series with mice red blood cells, the “hemolysis to mice red blood cells” value is recorded as “little hemolysis”. For the same compound, the cell survival rate in the series on RAW264.7 cells was determined as 72%.

With `CO/N=C(\C(=O)N[C@@H]1C(=O)N2C(C(=O)O)=C(CSc3nc(=O)c(=O)[nH]n3C)CS[C@H]12)c1csc(N)n1` [ceftriaxone], in the series with MRSA ATCC 43300 (MRSA ATCC 43300 continuously passaged for 30 days), the “increase of MIC value” is 256 times.
